Measured values as given in article PMC9929232, “On-demand male contraception via acute inhibition of soluble adenylyl cyclase” (Nature Communications, 2023).
Where “and” joins values, the source holds several entries; their conditions need not be identical. Equal values may be shown once. Entries after “also recorded” stand apart in the source; their conditions may differ. Values belong to the molecule of their own block, whether it stands above or below them.

Key:
[1] = biological target: T1, sAC-overexpressing rat 4-4 cells (Rattus norvegicus, UniProt Q9Z286); test: Cellular cAMP accumulation in sAC-overexpressing 4-4 cells;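 for cAMP accumulated (%): percent of DMSO-treated control cAMP accumulation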; type: cell-based; parameters: cAMP accumulated: unit not given here; conditions: for cAMP accumulated (%): Fig. 1d normalized replicates; for cAMP accumulated: Fig. 1d replicates
T1 construct: expressed in transfected cells
T1 sequence (Q9Z286 1-469 limits assumed): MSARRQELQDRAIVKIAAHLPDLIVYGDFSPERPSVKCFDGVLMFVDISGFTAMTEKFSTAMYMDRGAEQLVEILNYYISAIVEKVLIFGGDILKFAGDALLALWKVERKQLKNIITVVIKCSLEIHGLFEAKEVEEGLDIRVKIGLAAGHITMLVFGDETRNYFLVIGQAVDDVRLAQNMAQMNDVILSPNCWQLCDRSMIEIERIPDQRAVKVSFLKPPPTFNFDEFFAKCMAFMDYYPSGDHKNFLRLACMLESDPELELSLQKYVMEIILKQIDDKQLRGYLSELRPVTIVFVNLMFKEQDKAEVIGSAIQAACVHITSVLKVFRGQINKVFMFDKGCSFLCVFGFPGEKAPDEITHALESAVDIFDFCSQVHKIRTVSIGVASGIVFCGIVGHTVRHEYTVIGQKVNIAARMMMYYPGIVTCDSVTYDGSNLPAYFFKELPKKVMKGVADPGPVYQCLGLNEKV
Experimental: sAC-overexpressing rat 4-4 cells were generated and functionally authenticated in our laboratory as previously described[33] and grown in DMEM + 10% FBS. Cells were maintained at 37 °C in 5% CO2 and were periodically checked for mycoplasma contamination.
To assess potency in a cellular system, we utilized 4-4 cells, which stably overexpress sAC[20],[33],[56]. Cellular levels of cAMP reflect a balance between its synthesis by adenylyl cyclases and its degradation by phosphodiesterases (PDEs). […] On the day prior to the assay, 5 × 10^6 cells/ml were seeded in 24-well plates in DMEM with 10% FBS. To measure sAC-dependent cAMP accumulation, cells were pretreated for 10 min with the respective inhibitor at the indicated concentrations or DMSO as control in 300 µl fresh media. Cyclic AMP accumulation was initiated by the addition of 500 µM IBMX, and after 5 min, the media was removed, and the cells were lysed with 250 µl 0.1 M HCl by shaking at 700 rpm for 10 min.

[2] = cited from earlier work
[3] = tested on: ejaculated uterine mouse sperm; test: Motility (CASA) of ejaculated uterine mouse sperm from injected males; type: in vivo; parameters: hyperactivated motility (%): concentration or dose not given beside the values
Experimental: (§1) For analysis of ejaculated uterine mouse sperm, the uteri of females with mating plugs were removed and placed into 1 ml TYH buffer.
For ex vivo assessment of mouse sperm from inhibitor-treated mice, sperm (25 µl) isolated at the indicated time points (15 min to 24 hours post-injection) diluted 1:5 in non-capacitating TYH buffer were loaded on a […] Leja slide (Hamilton Thorne) and placed on a microscope stage at 37 °C. Sperm movements of 10 fields of at least 200 sperm were examined using computer-assisted sperm analysis (CASA) via Hamilton–Thorne digital image analyzer (IVOS II, Hamilton Thorne Research, Beverly, MA) with the following parameters: 30 frames, frame rate: 60 Hz, cell size: 30–170 μm^2. Ejaculated uterine mouse sperm were recorded without additional dilution. Sperm were considered motile when presenting STR ≥80% and VAP ≥50 μm/s and hyperactivated when presenting VCL ≥270 μm/s, LIN < 50%, and ALH ≥7 μm. Track´s color code: motile (green), progressive (turquoise), hyperactivated (purple), slow (pink), static (red), not counted due to late entry (yellow).

[4] = tested on: ejaculated uterine mouse sperm; test: cAMP in ejaculated uterine mouse sperm from injected males; type: in vivo
Experimental: as §1

[5] = cited from earlier work; remark: listed apart in the source
fertility of male mice = test: Timed mouse mating (contraceptive efficacy); type: in vivo; conditions: for Contraceptive efficacy: vs vehicle
Experimental: Single-housed naive (i.e., uninjected and virgin) male and female C57Bl/6 mice were acclimatized to a reverse light cycle (dark: 11 AM to 11 PM) for at least 2 weeks. […] Pregnancy and litter size was assessed in two ways. Either female were sacrificed 7 days following mating and implanted embryos counted, or females were permitted to go to term (21 days) and pups counted. A subset of the pups (both male and female) born from breakthrough pregnancies were permitted to mature and their fertility was assessed in standard matings.

mice = type: in vivo; conditions: for at least 24 hours
[6] = at 20 µM; cited from earlier work
[7] = tested on: tmACs from each subfamily; conditions: cited from earlier work
over 310 kinases = conditions: cited from earlier work
[8] = cited from earlier work; remark: listed apart in the source
[9] = Pharmacokinetic analysis of TDI-11861 in blood and tissues (LC-MS); type: in vivo, mouse; conditions: oral, 1 and 3 hours; caput and cauda epididymis, seminal vesicles, not testis
[10] = as above; type: in vivo, mouse; conditions: i.p.; including cauda epididymis, excluding testis
Experimental: At defined time points (15 min to 24 hours post-injection), 10 μl tail blood was progressively collected from the same males, mixed with 20 μl 15 mM EDTA, frozen in liquid nitrogen, and stored at −80 °C until analysis. Liver, kidney, eye, testis, caput and cauda epididymis, and seminal vesicle were collected, weighed, and homogenized in a threefold volume of 1:1 EtOH/H2O (v/v). […] Mice anesthetized with ketamine/xylazine were shaved and residual hair was removed with hair removal cream. A small incision was made with a scalpel, a hemostat was used to create a pump-size pocket under the skin, and the pump was inserted with the pump opening facing away from the incision. After the wound was closed, mice were treated with meloxicam for pain relief. For 7 or 42 days post-surgery, tail blood was collected at regular intervals.

[11] = tested on: ion channels, GPCRs, kinases, and nuclear receptors; conditions: cited from earlier work
[12] = Fig. 4a replicates, ejaculated uterine sperm, 2 hours after 50 mg/kg i.p.
[13] = 50 mg/kg i.p., mating period 0.5–2.5 hours, 2 hours
[14] = 50 mg/kg i.p., mating period 1–9 hours, 8 hours

cAMP accumulated (%) ([1]; printed 0.477121): 0%
Structure (SMILES): Cc1c(Cc2ccccc2)c(-c2cc(Cl)nc(N)n2)nn1C [TDI-10229, reference compound]
cAMP accumulated (%) ([1]; printed 0): 3.303% and 10.629% and 8.51% and 2.193% and 5.92% and 3.107% and 22.11% and 16.4972% and 11.8328% and 5.524% and 4.206% and 1.889% and 2.077% | cAMP accumulated (%) ([1]; printed -0.52288): 40.0361% and 25.5301% and 16.8792% and 12.1343% and 19.6251% and 46.0455% and 19.6826% and 32.1271% and 49.6122% and 23.5829% and 24.3244% and 21.4812% and 12.9118% | cAMP accumulated (%) ([1]; printed -1): 53.928% and 46.3142% and 43.7516% and 31.429% and 23.6328% and 79.7321% and 41.9299% and 71.9606% and 102.407% and 49.6166% and 29.8946% and 34.6849% and 30.4462% | cAMP accumulated (%) ([1]; printed -1.47712): 63.9701% and 48.7859% and 51.356% and 54.7326% and 51.5128% and 120.896% and 78.187% and 107.566% and 161.903% and 63.1342% | cAMP accumulated ([1]; concentration (uM) -1.95424 [sic]): 47.248 and 20.896 and 22.932 and 53.28 and 23.028 and 39.526 and 63.525 and 88.135 and 120.985 and 194.007 and 68.902 and 22.685 | cAMP accumulated ([1]; concentration (uM) -2.43136 [sic]): 48.561 and 22.294 and 31.915 and 66.057 and 37.215 and 54.337 and 58.571 and 46.103 and 61.044 and 66.819 and 131.064 and 78.712 and 23.002 | cAMP accumulated ([1]; concentration (uM) -2.90848 [sic]): 49.13 and 27.611 and 32.179 and 77.343 and 38.522 and 35.67 and 62.766 and 41.76 and 54.941 and 113.858 and 170.305 and 78.712 and 23.104

Structure (SMILES): Nc1nc(Cl)cc(-c2nn(C(F)F)cc2Cc2ccccc2OCCN2CCOC[C@@H]2CO)n1 [TDI-11861]
DEREK analysis for mutagenicity risks [2]: no significant activity | motility of ejaculated sperm ([3]; 50 mg/kg i.p., retrieved from uterus post-coitus): immotile | progressive motility (%) ([3]; Fig. 4b, ejaculated sperm): 4.7% and 5.3% and 8.9% and 7% and 4% and 4.75% and 3.2% | hyperactivated motility (%) ([3]; Fig. 4c, ejaculated sperm): 1.4% and 0.8% and 0.5% and 0.9% and 1.1% | bicarbonate-induced cAMP in ejaculated sperm ([4]; 50 mg/kg i.p., retrieved from uterus): no bicarbonate-induced increase in cAMP | cAMP, capacitating media [4, 12]: 0.692 pmol/10^6 sperm and 0.283 pmol/10^6 sperm and 0.5995 pmol/10^6 sperm and 0.72 pmol/10^6 sperm and 1.204 pmol/10^6 sperm and 0.492 pmol/10^6 sperm and 0.468 pmol/10^6 sperm and 0.24 pmol/10^6 sperm | cAMP, non-capacitating media [4, 12]: 0.738 pmol/10^6 sperm and 1.2045 pmol/10^6 sperm and 0.9637 pmol/10^6 sperm and 0.847 pmol/10^6 sperm and 1.232 pmol/10^6 sperm and 0.679 pmol/10^6 sperm and 0.436 pmol/10^6 sperm and 0.514 pmol/10^6 sperm | activity in AMES assays [5]: no significant activity | mating behavior and mating frequency versus vehicle-injected males (fertility of male mice; 50 mg/kg i.p.): same frequency as vehicle-injected males; also recorded: indistinguishable | Pregnancy rate (fertility of male mice; 50 mg/kg i.p., mating period 0.5–2.5 hours post injection, mating time 2 hours): 0% | Pregnancy pairings (pregnancies/pairings) (fertility of male mice; [13]): zero females became pregnant in 52 pairings; also recorded: (0/52) | Contraceptive efficacy (fertility of male mice; [13]): 100% | Contraceptive efficacy (fertility of male mice; 50 mg/kg i.p., mating period 0.5–[…], 3 hours): 91% | Pregnancy rate (fertility of male mice; 50 mg/kg i.p., mating period 0.5–[…], mating time 3 hours): 2.2% | Pregnancy pairings (pregnancies/pairings) (fertility of male mice; [14]): 5 pregnancies out of 55 and (5/55) | Contraceptive efficacy (fertility of male mice; [14]): 78% | Pregnancy rate (fertility of male mice; 50 mg/kg i.p., mating period 1–9 hours, mating time 8 hours): 9.1% | Pregnancy pairings (pregnancies/pairings) (fertility of male mice; 50 mg/kg i.p., mating period 24–120 hours, 96 hours): (13/15) | Pregnancy rate (fertility of male mice; 50 mg/kg i.p., mating period 24–120 hours, mating time 96 hours (recovery)): 87% | health of F1 progeny from breakthrough pregnancies (fertility of male mice; male and female F1): matured normally into fertile adults | abnormal mouse behavior after single oral dose (mice): did not cause any abnormal mouse behavior | cytotoxicity in cell viability assays [6]: no significant activity | activity against tmACs [7]: no activity | activity against over 310 kinases (over 310 kinases): no significant activity | activity in glutathione trapping assays [8]: no significant activity | levels in tissues versus blood [9]: correlated well with its concentration in blood | levels in tissues versus blood [10]: correlated well with levels in blood | activity versus 46-member safety panel [11]: no significant activity
